Source: patent US4889941A, “Synthetic flavonoids as inhibitors of leukotrienes and 5-lipoxygenase” (Fisons Corporation, priority 1987, dated 1989)
Counter-ions that a name gives are not always drawn. Each block holds one compound with its values, some of them ahead of it.

Tests used:
[1] = tested on: edema in a rat anaphylaxis test; test: Rat anaphylaxis test (paw edema after bovine serum albumin challenge); format: in vivo; settings: for activity in the rat anaphylaxis test: administered as a suspension
Procedure: Groups of 15-20 rats are intraperitoneally sensitized with 500 μg of bovine serum albumin-absorbed alum admixed with 2×10^10 killed Bordetella pertussis vaccine organisms. Fourteen days later, the paw volume is measured using a mercury plethysmometer. Immediately thereafter, the test compound suspended in about 1 ml of 1% Clearjel ("Instant Clearjel", a food grade pregelatinized starch from National Starch and Chemical Corporation, New York, N.Y.) at 100 mg/kg is administered ip and, one hour later, the right hind paw is injected subcutaneously with 100 μg of bovine serum albumin dissolved in 0.1 ml of saline. (In controls, no test compound is suspended in the Clearjel.) The paw volume is remeasured 90 minutes post antigenic challenge to determine the volume increase (Δ V) since the first measurement. The percent inhibition of edema is [formula] The effect of theophylline (90 mg/kg, po) is tested as a positive control.

[2] = Solubility in the balanced salts solution of the tissue bath; format: physicochemical; settings: balanced salts solution of the LTC4 ilial assay
5-lipoxygenase = target: T1, 5-lipoxygenase (Homo sapiens, UniProt P09917); test: Inhibition of 5-lipoxygenase (5-HETE formation from arachidonic acid, HPLC); format: biochemical; settings: arachidonic acid 1 mg/ml, pH 7.4, 6 minutes at 30° C.
T1 sequence (P09917 1-674): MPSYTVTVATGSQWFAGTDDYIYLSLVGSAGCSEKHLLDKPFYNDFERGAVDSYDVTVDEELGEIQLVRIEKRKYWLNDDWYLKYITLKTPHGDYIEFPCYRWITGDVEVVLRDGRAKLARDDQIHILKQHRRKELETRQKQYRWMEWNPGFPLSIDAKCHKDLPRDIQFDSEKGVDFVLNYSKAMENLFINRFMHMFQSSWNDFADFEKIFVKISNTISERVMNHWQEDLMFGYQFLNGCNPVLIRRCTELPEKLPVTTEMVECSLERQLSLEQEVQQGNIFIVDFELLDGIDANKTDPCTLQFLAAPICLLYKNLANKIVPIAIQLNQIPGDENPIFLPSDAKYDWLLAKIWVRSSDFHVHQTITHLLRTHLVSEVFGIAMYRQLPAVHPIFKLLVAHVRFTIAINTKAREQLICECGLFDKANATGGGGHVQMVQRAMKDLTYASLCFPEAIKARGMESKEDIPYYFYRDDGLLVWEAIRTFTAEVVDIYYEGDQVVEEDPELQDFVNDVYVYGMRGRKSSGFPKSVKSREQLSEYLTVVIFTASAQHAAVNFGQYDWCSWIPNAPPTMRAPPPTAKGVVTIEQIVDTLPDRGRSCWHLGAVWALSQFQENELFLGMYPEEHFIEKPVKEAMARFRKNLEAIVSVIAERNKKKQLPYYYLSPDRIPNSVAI
Procedure: Test for Inhibition of 5-Lipoxygenase
This test is based on the procedure of Arai et al., J. Med. Chem., Vol. 26, 72 (1983).
Arachidonic acid in the presence of the enzyme 5-lipoxygenase is converted to 5-hydroxy-eicosatetraenoic acid (5-HETE) through a 2-step process. To assess the activity of a test compound on 5-lipoxygenase activity, a specific concentration of the test compound is added to 1 mg/ml of arachidonic acid in the presence of the appropriate amount of 5-lipoxygenase in a solution of potassium phosphate buffer containing 1 mM CaCl2 at pH 7.4. The reaction is carried out for 6 minutes at 30° C. in a total volume of 500 μl. The reaction is stopped by addition of lM citric acid. The 5-HETE is extracted and quantitated using high performance liquid chromatography. The percent activity is calculated as follows: [formula]

leukotriene C4 (LTC4) = test: Inhibition of LTC4-induced guinea pig ilial contractions; format: cell-based; settings: Cavia porcellus, LTC4 6 nanomolar, read-out: percent inhibition of LTC4-induced contraction
Procedure: Test for Inhibition of LTC4 -Induced Guinea Pig Ilial Contractions
The evaluation of potential anti-allergic compounds for antagonism of the in vitro effects of leukotriene C4 (LTC4) is conducted according to the following procedure. Guinea pig ilial strips are obtained from recently killed animals and hung in isolated tissue baths comprising a balanced solution of salts such as Krebs' solution. After allowing for one hour equilibration of the tissue in the bath, the gram tension (G.T.) on one tissue is arbitrarily set at one. LTC4 (6 nanomolar concentration) is then added to the tissue bath. This induces a long, sustained contraction of the tissue that is measured on the strip chart recorder (the G.T. increases to about 2). After the LTC4 -induced contraction has plateaued and remains stable, increasing amounts of the test compound are added to the bath. If the compound is effective, a decrease in the G.T. (Δ G.T.) from the LTC4 -induced value is seen (e.g., from 2 to 1.5). The percent inhibition at each concentration is calculated according to the formula: [formula] Four replicate tissues are run.

SMILES: O=c1cc(-c2ccccc2)oc2cc(OCC(O)CNCC(O)COc3ccccc3)ccc12 (stereo not shown) [Example 11, 7-[3-[3-phenoxy-2-(hydroxypropyl)amino]-2-hydroxypropoxy]flavone Hydrochloride]
activity in the rat anaphylaxis test [1]: active | solubility in the balanced salts solution [2]: insoluble

SMILES: O=c1cc(-c2ccccc2)oc2cc(OCC(O)CN3CCN(c4ccccc4)CC3)ccc12 (stereo not shown) [Example 12, 7-[3-(N-phenylpiperazinyl)-2-hydroxypropoxy]flavone]
activity in the rat anaphylaxis test [1]: active | solubility in the balanced salts solution [2]: insoluble

SMILES: COc1ccc(CCNCC(O)COc2ccc3c(=O)cc(-c4ccccc4)oc3c2)cc1OC (stereo not shown) [Example 1, 7-[3-[(3,4-dimethoxyphenethyl)amino]-2-hydroxypropoxy]flavone Maleate]
inhibition at 10 µM (leukotriene C4 (LTC4); final tissue bath concentration 1×10^-5 M): 94% | inhibition at 1 µM (leukotriene C4 (LTC4); final tissue bath concentration 1×10^-6 M): 52.3% | inhibition at 5 µM (leukotriene C4 (LTC4); final tissue bath concentration 5×10^-6 M): 89.8%

SMILES: O=c1c(-c2ccccc2)c(-c2ccccc2)oc2cc(OCC(O)CNc3ccccc3)ccc12 (stereo not shown) [Example 19, 3-Phenyl-7-(3-anilino-2-hydroxypropoxy)flavone]
activity in the Rat Anaphylaxis test ([1]; as hydrochloric acid salt): inactive | activity in the Rat Anaphylaxis test ([1]; free base form): active

The next lines start with results.

IC50 (5-lipoxygenase): ~90 nM
SMILES: Br.O=c1cc(-c2ccccc2)oc2cc(OCC(O)CNCCc3ccc(O)c(O)c3)ccc12 (stereo not shown) [Example 14, 7-[3-[(3,4-Dihydroxyphenethyl)amino]-2-hydroxypropoxy]flavone Hydrobromide]
percent inhibition of edema ([1]; rat, 100 mg/kg ip in 1% Clearjel, paw volume 90 minutes post antigenic challenge): 63%

solubility in the balanced salts solution [2]: insoluble
SMILES: O=c1c(-c2ccccc2)c(-c2ccccc2)oc2cc(OCC(O)CNCCc3ccccc3)ccc12 (stereo not shown) [Example 18, 3-Phenyl-7-(3-phenethylamino-2-hydroxypropoxy)flavone]
activity in the rat anaphylaxis test [1]: active
